Legend:
[1] = tested on: Vibrio harveyi BB170 strain (AI-2 reporter bacterium); experiment: AI-2 activity inhibitory effect, photogenesis intensity of AI-2 reporter bacterium after addition of DPD; type: cell-based; settings: relative to control with only DPD added (=100); 10 min preincubation, 4 h culture at 30° C
Protocol: The method of screening an improving agent or preventive agent for periodontal disease of the present invention containing mixing a bacterium having an autoinducer-2-mediated quorum sensing system with a test drug and selecting a test drug having an autoinducer-2 activity inhibitory effect as an improving agent or preventive agent for periodontal disease. For example, a Vibrio harveyi BB 170 strain is prepared in a culture medium at 1000- to 10000-fold dilution (preferably 4000- to 5000-fold) and preincubated with a test compound solution at room temperature for 1 to 30 minutes (preferably for 10 minutes). Then, AI-2 was added to the resultant solution, which was subjected to aerobic shaking culture at 30±5° C. Two (2) to six (6) hours later (preferably four (4) hours later), the photogenesis intensity is measured with a chemiluminescence analyzer. The final concentration of AI-2 is from 0.001 to 100 μM (preferably 10 μM). The final concentration of the test compound solutions is from 0.0001 to 0.1% or from 1 to 100 μM. Each concentration is not limited thereto. The photogenesis intensity when a control obtained by adding only the AI-2 is mixed with the test compound solution is measured as a relative value to the photogenesis intensity of control so that the AI-2 activity inhibitory effect of the test compound can be measured. The bacterium having an autoinducer-2-mediated quorum sensing system is not particularly limited. A reporter bacterium which recognizes the autoinducer-2 thereby emitting light is preferred and dental bacteria and periodontal pathogens can also be used. Further, the bacterium having an autoinducer-2-mediated quorum sensing system which is collected from the oral cavity of a subject can also be used as a specimen.
A Vibrio harveyi BB170 strain (cultured in an AB medium at 30° C. overnight) was used as an AI-2 reporter bacterium and it was 4500-fold diluted with an AB culture medium to prepare a reporter bacterium liquid. A reporter bacterium liquid was mixed with each of the test drugs, which was preincubated at room temperature for 10 minutes, followed by addition of DPD and aerobic shaking culture at 30° C. Four (4) hours later, the photogenesis intensity was measured with the chemiluminescence analyzer (LB940 type, manufactured by Berthold Japan co. ltd.). AI-2 was quantified from the measured photogenesis intensity in the same manner as described in Example 1.
The amount of AI-2 was a relative value to the amount of DPD of the control (the amount of AI-2) when one obtained by adding only the DPD without adding the test drugs was used as a control.

syrian hamsters = experiment: Alveolar bone resorption in floss-tied mandibular first molars of syrian hamsters; type: in vivo; settings: syrian hamster; for Alveolar bone resorption depth (mm): 200 μL of 10 μM solution dropwise to floss-tied first molars twice a day for two weeks, control 2.87; for absorption of the alveolar bone: added dropwise to the oral cavity for two weeks
Protocol: The mandibule of syrian hamsters (three males, 7 weeks old) was extracted under anesthesia and a photograph was taken under the stereoscopic microscope. An evaluation site is the lingual surface of extraction mandibule. The obtained photographs were subjected to image analysis and a vertical distance from the first molar mesial cusp tip to the alveolar tip was measured.
Floss was tied around the left and right mandibular first molar teeth of other syrian hamsters (three males, 7 weeks old). From the next day on, 200 μL of a PBS solution containing 1% DMSO (concentration: 10 μM) of Compound 1 or 2 above was added dropwise to the same tied sites twice a day for two weeks and they were bred.
After the end of breeding, the mandibule was extracted under anesthesia and photographs were taken under the stereoscopic microscope. An evaluation site is the lingual surface of extraction mandibule and the taken photographs were subjected to image analysis. […] a vertical distance from the first molar mesial cusp tip to the alveolar tip was measured.
The alveolar bone resorption depth (a value before addition is subtracted from a value after addition for two weeks) was measured from the vertical distance from the first molar mesial cusp tip to the alveolar tip before addition of the test drug and after addition of the test drug for two weeks.

Compound	AI-2 amount (relative value) [1]	Alveolar bone resorption depth (mm) (syrian hamsters)	absorption of the alveolar bone (syrian hamsters)
CCCCCC1=CCCC1=O [Compound 7, 2-pentyl-2-cyclopentene-1-one, reference compound]	63.4		
O=C1OC(O)C(Br)=C1Br (centres unmarked) [Compound 2, 3,4-dibromo-5-hydroxy-2(5H)-furanone]	0	2.62 mm	suppressed
CC1=C(O)C(=O)C(C)O1 (centres unmarked) [Compound 5, 4-hydroxy-2,5-dimethyl-3(2H)-furanone, reference compound]	77.0		
COc1ccc(C2OC(=O)C=C2Br)cc1 (centres unmarked) [Compound 1, 4-bromo-5-(4-methoxyphenyl)-2(5H)-furanone]	29.6	2.50 mm	suppressed
COc1ccc(C2(OC)OC(=O)C=C2Br)cc1 (centres unmarked) [Compound 3, 4-bromo-5-methoxy-5-(4-methoxyphenyl)-2(5H)-furanone]	62.5		
COC1(c2ccccc2)OC=C(c2ccccc2)C1=O (centres unmarked) [Compound 6, 2-methoxy-2,4-diphenyl-3(2H)-furanone, reference compound]	88.9		
COc1ccc(C2(Oc3ccc(C(=O)O)cc3)OC(=O)C=C2Br)cc1 (centres unmarked) [Compound 4, 4-{[3-bromo-2-(4-methoxyphenyl)-5-oxo-2,5-dihydro-2-furanyl]oxy}benzoate]	76.0		

From patent publication US8568986B2, “Method of selecting an agent that improves periodontal disease” (Kao Corporation, priority 2009, dated 2013)
